Assay results published in patent US20110269811A1, “INHIBITORS OF SEMICARBAZIDE-SENSITIVE AMINE OXIDASE (SSAO) AND VAP-1 MEDIATED ADHESION USEFUL FOR TREATMENT AND PREVENTION OF DISEASES” (priority 2006, published 2011).

Experiments:
human MAO-B = target: T1, human MAO-B (Homo sapiens, UniProt P27338); test: MAO-B activity, colorimetric method, benzylamine substrate; type: biochemical; details: for Specificity of SSAO on MAO-B: ratio of IC50 for MAO-B to IC50 for SSAO; for IC50: recombinant human MAO-B
T1 construct: purchased BD Biosciences (MA, USA)
T1 sequence (P27338 1-520): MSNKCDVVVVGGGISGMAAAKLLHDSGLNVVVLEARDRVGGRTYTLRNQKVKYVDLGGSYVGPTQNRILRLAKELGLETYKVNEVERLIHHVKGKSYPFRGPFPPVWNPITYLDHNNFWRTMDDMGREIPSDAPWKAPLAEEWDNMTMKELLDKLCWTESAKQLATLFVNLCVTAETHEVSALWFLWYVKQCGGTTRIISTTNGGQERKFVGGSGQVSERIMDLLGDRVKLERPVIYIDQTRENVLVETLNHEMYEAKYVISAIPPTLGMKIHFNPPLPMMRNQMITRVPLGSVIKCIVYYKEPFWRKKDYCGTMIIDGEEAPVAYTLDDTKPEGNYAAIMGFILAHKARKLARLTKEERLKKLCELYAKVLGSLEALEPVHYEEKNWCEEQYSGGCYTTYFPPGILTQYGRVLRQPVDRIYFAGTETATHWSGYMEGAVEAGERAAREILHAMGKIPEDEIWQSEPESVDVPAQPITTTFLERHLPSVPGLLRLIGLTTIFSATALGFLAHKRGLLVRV
Procedure: The specificities of the different SSAO inhibitors was tested by determining their abilities to inhibit MAO-A and MAO-B activities in vitro. Recombinant human MAO-A and human MAO-B enzymes were obtained from BD Biosciences (MA, USA). MAO activity was measured using the colorimetric method essentially as described (Holt, A. et al. (1997) Anal. Biochem. 244: 384). A pre-determined amount of inhibitor diluted in 0.2M potassium phosphate buffer, pH 7.6, was added to each well, if required. […] Controls lacked inhibitor. The following agents were then added to a final reaction volume of 200 μL in 0.2M potassium phosphate buffer, pH 7.6: 0.04 mg/ml of MAO-A or 0.07 mg/ml MAO-B enzyme, 15 μL of 10 mM tyramine substrate (for MAO-A), or 15 μL 100 mM benzylamine substrate (for MAO-B), and 50 μL of freshly made chromogenic solution. The chromogenic solution contained 750 μM vanillic acid (Sigma#V-2250), 400 μM 4-aminoantipyrine (Sigma #A-4328) and 12 U/mL horseradish peroxidase (Sigma #P-8250) in order to cause a change of 0.5 OD A490 nm/h. […] The plates were incubated for 60 min at 37° C. The increase in absorbance, reflecting MAO activity, was measured at 490 nm using microplate spectrophotometer (Power Wave 40, Bio-Tek Inst.). Inhibition was presented as percent inhibition compared to control after correcting for background absorbance and IC50 values calculated using GraphPad Prism software. Clorgyline and pargyline (inhibitors of MAO-A and -B, respectively) at 1 μM, were added to some wells as positive controls for MAO inhibition.

[1] = test system: carrageenan-induced paw edema; test: Carrageenan-induced rat paw edema; type: in vivo, Sprague Dawley rats; details: for paw swelling: 50 mg/kg orally 60 min prior to carrageenan
Description: Carrageenan-induced paw edema has been extensively used in the evaluation of anti-inflammatory effects of various therapeutic agents and is a useful experimental system for assessing the efficacy of compounds to alleviate acute inflammation (Whiteley P E and Dalrymple S A, 1998. Models of inflammation: carrageenan-induced paw edema in the rat, in Current Protocols in Pharmacology. Enna S J, Williams M, Ferkany J W, Kenaki T, Porsolt R E and Sullivan J P, eds., pp 5.4.1-5.4.3, John Wiley & Sons, New York). The full development of the edema is neutrophil-dependent (Salvemini D. et al. (1996) Br. J. Pharmacol. 118: 829).
Female Sprague Dawley rats were used in groups of 8-12 and compounds of the invention were administered orally at up to 50 mg/kg 60 min prior to carrageenan exposure. The control group was administered orally an equal volume of vehicle (PBS). Edema in the paws was induced as previously described by injecting 50 μL of a 0.5% solution of carrageenan (Type IV Lambda, Sigma) in saline with a 27-G needle s.c. in the right foot pad. (See Whiteley P. E. and Dalrymple S. A. (1998), Models of inflammation: carrageenan-induced paw edema in the rat, in Current Protocols in Pharmacology, Enna S J, Williams M, Ferkany J W, Kenaki T, Porsolt R E and Sullivan J P, eds., pp 5.4.1-5.4.3, John Wiley & Sons, New York) The size of the tested foot of each animal was measured volumetrically with a plethysmometer immediately after injection of carrageenan solution and at various times up to 360 min after carrageenan induction.
Results of experiments with the compounds II-1-E, I-1-Z, and I-2-Z are shown in FIG. 1, FIG. 5, and FIG. 6, respectively.
Using the same procedure discussed above, the size of the foot of each animal was measured volumetrically before induction of edema, and at 1.5, 3, 4.5 and 6 h after the carrageenan injection. The absolute decreases in paw swelling at 6 h with 1, 10 and 50 mg/kg were 5±11%, 20±9% and 32±6% respectively. Statistical analyses were performed with repeated measures ANOVA followed by Dunnett's test for multiple comparisons.
Paw edema was induced in groups of eight Sprague Dawley rats by injecting 50 μL of a 0.375% solution of carrageenan X in saline, subcutaneously in the foot. After one hour animals were orally dosed once with PBS, compound I-1-Z at 50 mg/kg or with indomethacin at 3 mg/kg. The size of the paws were measured before induction of edema (baseline), and at 1.5, 3, 4.5 and 6 h after carrageenan injection. […] Statistical analyses were performed with repeated measures ANOVA followed by Dunnett's test for multiple comparisons.
Groups of eight Sprague Dawley rats were orally administered PBS, or 0.01, 0.1 or 1 mg/kg of compound I-1-Z. One hour later paw edema was induced in all animals by injecting 50 μL of a 0.5% solution of carrageenan X in saline, subcutaneously into the footpad. The size of the foot of each animal was measured volumetrically before induction of edema, and at 1.5, 3, 4.5 and 6 h after the carrageenan injection. The absolute decreases in paw swelling at 6 h with 0.1 and 1 mg/kg were 34±8 and 29±8% respectively. Statistical analyses were performed with repeated measures ANOVA followed by Dunnett's test for multiple comparisons.

Compound: NC/C(F)=C\Cc1cc(F)cc(C(F)(F)F)c1 [II-1-E, (E)-2-Fluoro-4-(3-fluoro-5-trifluoromethylphenyl)-but-2-enylamine]
- Specificity of SSAO on MAO-B (human MAO-B): >2400
- IC50 (human MAO-B): > 87 µM
- paw swelling ([1]; between 2-6 h): clearly reduced the paw swelling

Compound: CCOc1ccc(C/C(=C/F)CN)cc1.Cl [Compound I-2-Z, (Z)-3-Fluoro-2-(4-ethoxybenzyl)-allylamine hydrochloride]
- Specificity of SSAO on MAO-B (human MAO-B): 1200
- IC50 (human MAO-B): 12 µM
- paw swelling ([1]; between 3-6 h): clearly reduced the paw swelling

Compound: COc1ccc(C/C(=C/F)CN)cc1.Cl [Compound I-1-Z, (Z)-3-Fluoro-2-(4-methoxybenzyl)-allylamine hydrochloride]
- Specificity of SSAO on MAO-B (human MAO-B): 88
- IC50 (human MAO-B): 1.6 µM
- absolute decrease in paw swelling at 6 h ([1]; 0.1 mg/kg orally one hour before carrageenan, low doses, FIG. 13): 34±8%
- absolute decrease in paw swelling at 6 h ([1]; 1 mg/kg orally one hour before carrageenan, low doses, FIG. 13): 29±8%
- absolute decrease in paw swelling at 6 h ([1]; 1 mg/kg, dose response, FIG. 7): 5±11%
- absolute decrease in paw swelling at 6 h ([1]; 10 mg/kg, dose response, FIG. 7): 20±9%
- paw swelling ([1]; between 2-6 h): clearly reduced the paw swelling
- absolute decrease in paw swelling at 6 h ([1]; 50 mg/kg, dose response, FIG. 7): 32±6%
- inhibition of paw edema at 6 h ([1]; therapeutic dosing: 50 mg/kg orally one hour after 0.375% carrageenan, FIG. 8): 50±4%
